Measured values from ChEMBL document CHEMBL4184123, “Discovery of novel 2-substituted-4-phenoxypyridine derivatives as potential antitumor agents” (Bioorg Med Chem Lett, 2018).

Tests used:
[1] = test system: U-87 MG; assay: Antiproliferative activity against human U87MG cells after 72 hrs by MTT assay; format: functional, cell-based, U-87MG ATCC
[2] = test system: A549; assay: cells; settings: Homo sapiens, A549, 72 h
Description: Antiproliferative activity against human A549 cells after 72 hrs by MTT assay

[3] = test system: NCI-H460; assay: Antiproliferative activity against human H460 cells after 72 hrs by MTT assay; format: functional, cell-based; settings: NCI-H460, 72 h
[4] = test system: HT-29; assay: cells; settings: Homo sapiens, HT-29, 72 h
[5] = molecular target: Platelet-derived growth factor receptor beta (Homo sapiens, UniProt P09619); assay: Inhibition of PDGFRbeta (unknown origin) using poly (Glu, Tyr) 4:1 as substrate after 30 mins in presence of ATP by HTRF assay
[6] = molecular target: Vascular endothelial growth factor receptor 2 (Homo sapiens, UniProt P35968); assay: Inhibition of VEGFR2 (unknown origin) using poly (Glu, Tyr) 4:1 as substrate after 30 mins in presence of ATP by HTRF assay
[7] = molecular target: T1, Receptor-type tyrosine-protein kinase FLT3 (Homo sapiens, UniProt P36888); assay: Inhibition of FLT3 (unknown origin) using poly (Glu, Tyr) 4:1 as substrate after 30 mins in presence of ATP by HTRF assay
T1 sequence (P36888 whole entry): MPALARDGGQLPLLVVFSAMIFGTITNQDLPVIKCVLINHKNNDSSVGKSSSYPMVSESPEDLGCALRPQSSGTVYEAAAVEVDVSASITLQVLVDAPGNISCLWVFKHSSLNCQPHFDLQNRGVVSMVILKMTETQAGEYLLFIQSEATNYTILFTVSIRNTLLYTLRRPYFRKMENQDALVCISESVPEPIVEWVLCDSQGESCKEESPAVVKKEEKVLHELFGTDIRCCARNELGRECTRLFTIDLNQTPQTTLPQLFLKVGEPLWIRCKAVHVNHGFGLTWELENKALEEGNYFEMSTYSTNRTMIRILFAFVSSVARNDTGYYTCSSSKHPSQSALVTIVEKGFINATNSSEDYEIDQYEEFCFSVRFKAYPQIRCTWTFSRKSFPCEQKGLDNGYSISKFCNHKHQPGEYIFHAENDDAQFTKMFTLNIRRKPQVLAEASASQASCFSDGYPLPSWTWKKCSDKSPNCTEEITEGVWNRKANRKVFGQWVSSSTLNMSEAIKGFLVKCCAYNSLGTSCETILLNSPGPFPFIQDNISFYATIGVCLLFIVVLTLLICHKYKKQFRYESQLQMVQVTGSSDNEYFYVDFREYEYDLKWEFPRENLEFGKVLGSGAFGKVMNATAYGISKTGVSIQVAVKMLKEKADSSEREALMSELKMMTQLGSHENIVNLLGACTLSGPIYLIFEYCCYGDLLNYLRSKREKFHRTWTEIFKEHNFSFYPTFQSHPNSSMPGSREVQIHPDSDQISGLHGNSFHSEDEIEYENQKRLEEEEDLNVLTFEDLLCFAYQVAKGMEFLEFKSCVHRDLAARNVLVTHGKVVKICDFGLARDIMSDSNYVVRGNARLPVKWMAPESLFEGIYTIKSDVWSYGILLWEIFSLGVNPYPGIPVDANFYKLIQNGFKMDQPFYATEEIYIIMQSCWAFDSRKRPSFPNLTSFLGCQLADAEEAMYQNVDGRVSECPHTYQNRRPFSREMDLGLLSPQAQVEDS

[8] = molecular target: Platelet-derived growth factor receptor alpha (Homo sapiens, UniProt P16234); assay: Inhibition of PDGFRalpha (unknown origin) using poly (Glu, Tyr) 4:1 as substrate after 30 mins in presence of ATP by HTRF assay
[9] = molecular target: ALK tyrosine kinase receptor (Homo sapiens, UniProt Q9UM73); assay: Inhibition of ALK (unknown origin) using poly (Glu, Tyr) 4:1 as substrate after 30 mins in presence of ATP by HTRF assay
[10] = molecular target: Hepatocyte growth factor receptor (Homo sapiens, UniProt P08581); assay: Inhibition of c-MET (unknown origin) using poly (Glu, Tyr) 4:1 as substrate after 30 mins in presence of ATP by HTRF assay
[11] = molecular target: Epidermal growth factor receptor (Homo sapiens, UniProt P00533); assay: Inhibition of EGFR (unknown origin) using poly (Glu, Tyr) 4:1 as substrate after 30 mins in presence of ATP by HTRF assay
[12] = molecular target: Mast/stem cell growth factor receptor Kit (Homo sapiens, UniProt P10721); assay: Inhibition of c-KIT (unknown origin) using poly (Glu, Tyr) 4:1 as substrate after 30 mins in presence of ATP by HTRF assay
[13] = molecular target: Vascular endothelial growth factor receptor 3 (Homo sapiens, UniProt P35916); assay: Inhibition of VEGFR3 (unknown origin) using poly (Glu, Tyr) 4:1 as substrate after 30 mins in presence of ATP by HTRF assay
Sequence of Vascular endothelial growth factor receptor 3 (P35916 whole entry): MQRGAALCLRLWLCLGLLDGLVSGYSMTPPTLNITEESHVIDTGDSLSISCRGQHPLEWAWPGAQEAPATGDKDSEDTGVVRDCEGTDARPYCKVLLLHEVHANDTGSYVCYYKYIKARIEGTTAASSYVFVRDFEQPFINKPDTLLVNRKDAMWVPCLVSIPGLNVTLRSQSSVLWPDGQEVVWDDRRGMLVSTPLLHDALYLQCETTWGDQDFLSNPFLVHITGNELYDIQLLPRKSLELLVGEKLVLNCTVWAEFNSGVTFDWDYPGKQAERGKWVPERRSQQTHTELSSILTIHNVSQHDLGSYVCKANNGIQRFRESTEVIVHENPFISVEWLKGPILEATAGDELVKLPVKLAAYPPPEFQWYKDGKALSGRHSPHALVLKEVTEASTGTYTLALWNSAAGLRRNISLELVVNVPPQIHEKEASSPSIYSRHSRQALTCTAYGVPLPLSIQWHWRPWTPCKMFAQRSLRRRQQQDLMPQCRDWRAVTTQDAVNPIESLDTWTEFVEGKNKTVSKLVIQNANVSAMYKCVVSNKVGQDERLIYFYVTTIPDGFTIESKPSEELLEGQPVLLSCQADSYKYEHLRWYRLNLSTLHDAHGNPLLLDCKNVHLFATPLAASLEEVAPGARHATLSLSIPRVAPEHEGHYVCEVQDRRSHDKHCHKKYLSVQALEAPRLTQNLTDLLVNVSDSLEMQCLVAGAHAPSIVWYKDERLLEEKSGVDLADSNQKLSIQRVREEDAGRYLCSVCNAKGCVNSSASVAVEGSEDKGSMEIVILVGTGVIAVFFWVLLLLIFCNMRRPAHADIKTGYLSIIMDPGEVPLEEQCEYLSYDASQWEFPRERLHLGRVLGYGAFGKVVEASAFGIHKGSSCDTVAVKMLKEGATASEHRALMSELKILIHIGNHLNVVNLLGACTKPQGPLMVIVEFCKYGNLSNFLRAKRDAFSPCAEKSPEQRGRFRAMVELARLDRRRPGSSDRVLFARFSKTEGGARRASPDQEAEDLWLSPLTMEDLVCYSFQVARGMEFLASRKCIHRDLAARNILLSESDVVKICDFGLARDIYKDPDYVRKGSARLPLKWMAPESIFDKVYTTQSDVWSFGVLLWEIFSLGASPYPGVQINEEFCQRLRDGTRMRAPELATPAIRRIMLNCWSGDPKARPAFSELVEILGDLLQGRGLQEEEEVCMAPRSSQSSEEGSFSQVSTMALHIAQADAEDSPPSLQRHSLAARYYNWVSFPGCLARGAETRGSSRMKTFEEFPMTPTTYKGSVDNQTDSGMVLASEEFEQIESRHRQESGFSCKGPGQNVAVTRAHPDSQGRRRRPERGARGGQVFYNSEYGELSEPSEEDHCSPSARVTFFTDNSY

Sequence of Mast/stem cell growth factor receptor Kit (P10721 whole entry): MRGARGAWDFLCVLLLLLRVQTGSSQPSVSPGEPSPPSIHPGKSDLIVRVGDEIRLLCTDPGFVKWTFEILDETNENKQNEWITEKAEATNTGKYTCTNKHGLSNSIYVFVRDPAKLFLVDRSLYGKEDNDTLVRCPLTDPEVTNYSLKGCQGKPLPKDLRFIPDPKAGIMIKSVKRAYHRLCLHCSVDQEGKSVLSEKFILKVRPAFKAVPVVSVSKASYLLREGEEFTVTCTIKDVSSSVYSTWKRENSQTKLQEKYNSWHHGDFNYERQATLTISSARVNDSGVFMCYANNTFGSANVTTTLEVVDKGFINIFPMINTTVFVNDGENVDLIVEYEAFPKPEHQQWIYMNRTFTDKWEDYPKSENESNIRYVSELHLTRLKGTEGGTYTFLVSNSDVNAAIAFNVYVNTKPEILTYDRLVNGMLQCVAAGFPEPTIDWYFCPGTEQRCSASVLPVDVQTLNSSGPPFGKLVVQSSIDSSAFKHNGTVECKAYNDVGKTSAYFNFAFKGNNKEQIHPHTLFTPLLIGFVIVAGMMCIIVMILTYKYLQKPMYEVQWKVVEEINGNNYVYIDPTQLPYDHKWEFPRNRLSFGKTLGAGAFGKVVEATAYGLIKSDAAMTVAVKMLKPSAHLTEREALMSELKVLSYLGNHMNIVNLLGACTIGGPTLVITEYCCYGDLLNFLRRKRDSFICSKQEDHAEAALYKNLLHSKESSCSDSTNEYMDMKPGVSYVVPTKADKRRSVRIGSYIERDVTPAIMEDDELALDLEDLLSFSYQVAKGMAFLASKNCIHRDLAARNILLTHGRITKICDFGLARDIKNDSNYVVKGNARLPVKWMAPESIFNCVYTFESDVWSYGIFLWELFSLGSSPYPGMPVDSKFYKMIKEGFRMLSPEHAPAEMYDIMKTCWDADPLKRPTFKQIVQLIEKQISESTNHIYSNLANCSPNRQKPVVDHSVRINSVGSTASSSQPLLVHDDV
Sequence of Platelet-derived growth factor receptor alpha (P16234 whole entry): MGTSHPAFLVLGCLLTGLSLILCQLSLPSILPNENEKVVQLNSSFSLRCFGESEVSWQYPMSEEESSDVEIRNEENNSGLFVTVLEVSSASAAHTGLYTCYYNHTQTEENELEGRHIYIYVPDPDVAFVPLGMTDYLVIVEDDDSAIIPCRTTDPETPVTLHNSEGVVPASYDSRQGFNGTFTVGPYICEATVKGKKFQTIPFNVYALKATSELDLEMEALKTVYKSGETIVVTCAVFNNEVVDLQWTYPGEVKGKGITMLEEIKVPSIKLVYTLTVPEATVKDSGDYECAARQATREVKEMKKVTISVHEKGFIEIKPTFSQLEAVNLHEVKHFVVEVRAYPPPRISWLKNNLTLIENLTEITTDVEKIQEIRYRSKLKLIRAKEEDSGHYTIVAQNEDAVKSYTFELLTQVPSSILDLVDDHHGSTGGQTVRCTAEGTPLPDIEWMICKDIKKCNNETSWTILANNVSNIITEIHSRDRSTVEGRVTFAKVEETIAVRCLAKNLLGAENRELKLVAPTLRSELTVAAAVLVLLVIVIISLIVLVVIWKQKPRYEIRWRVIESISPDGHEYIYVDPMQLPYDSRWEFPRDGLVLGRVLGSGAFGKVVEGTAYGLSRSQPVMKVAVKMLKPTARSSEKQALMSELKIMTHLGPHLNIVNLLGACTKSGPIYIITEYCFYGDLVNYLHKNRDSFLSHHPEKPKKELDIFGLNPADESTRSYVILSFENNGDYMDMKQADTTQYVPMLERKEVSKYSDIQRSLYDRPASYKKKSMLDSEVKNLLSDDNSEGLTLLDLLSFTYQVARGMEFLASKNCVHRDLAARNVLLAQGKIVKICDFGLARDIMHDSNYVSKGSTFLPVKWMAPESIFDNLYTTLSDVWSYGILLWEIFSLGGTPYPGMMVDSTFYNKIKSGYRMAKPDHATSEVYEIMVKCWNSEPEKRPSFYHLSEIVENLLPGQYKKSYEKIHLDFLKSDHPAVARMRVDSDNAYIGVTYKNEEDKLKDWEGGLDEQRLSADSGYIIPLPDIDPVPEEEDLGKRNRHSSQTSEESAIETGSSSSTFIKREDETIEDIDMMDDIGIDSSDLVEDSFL
Sequence of Vascular endothelial growth factor receptor 2 (P35968 whole entry): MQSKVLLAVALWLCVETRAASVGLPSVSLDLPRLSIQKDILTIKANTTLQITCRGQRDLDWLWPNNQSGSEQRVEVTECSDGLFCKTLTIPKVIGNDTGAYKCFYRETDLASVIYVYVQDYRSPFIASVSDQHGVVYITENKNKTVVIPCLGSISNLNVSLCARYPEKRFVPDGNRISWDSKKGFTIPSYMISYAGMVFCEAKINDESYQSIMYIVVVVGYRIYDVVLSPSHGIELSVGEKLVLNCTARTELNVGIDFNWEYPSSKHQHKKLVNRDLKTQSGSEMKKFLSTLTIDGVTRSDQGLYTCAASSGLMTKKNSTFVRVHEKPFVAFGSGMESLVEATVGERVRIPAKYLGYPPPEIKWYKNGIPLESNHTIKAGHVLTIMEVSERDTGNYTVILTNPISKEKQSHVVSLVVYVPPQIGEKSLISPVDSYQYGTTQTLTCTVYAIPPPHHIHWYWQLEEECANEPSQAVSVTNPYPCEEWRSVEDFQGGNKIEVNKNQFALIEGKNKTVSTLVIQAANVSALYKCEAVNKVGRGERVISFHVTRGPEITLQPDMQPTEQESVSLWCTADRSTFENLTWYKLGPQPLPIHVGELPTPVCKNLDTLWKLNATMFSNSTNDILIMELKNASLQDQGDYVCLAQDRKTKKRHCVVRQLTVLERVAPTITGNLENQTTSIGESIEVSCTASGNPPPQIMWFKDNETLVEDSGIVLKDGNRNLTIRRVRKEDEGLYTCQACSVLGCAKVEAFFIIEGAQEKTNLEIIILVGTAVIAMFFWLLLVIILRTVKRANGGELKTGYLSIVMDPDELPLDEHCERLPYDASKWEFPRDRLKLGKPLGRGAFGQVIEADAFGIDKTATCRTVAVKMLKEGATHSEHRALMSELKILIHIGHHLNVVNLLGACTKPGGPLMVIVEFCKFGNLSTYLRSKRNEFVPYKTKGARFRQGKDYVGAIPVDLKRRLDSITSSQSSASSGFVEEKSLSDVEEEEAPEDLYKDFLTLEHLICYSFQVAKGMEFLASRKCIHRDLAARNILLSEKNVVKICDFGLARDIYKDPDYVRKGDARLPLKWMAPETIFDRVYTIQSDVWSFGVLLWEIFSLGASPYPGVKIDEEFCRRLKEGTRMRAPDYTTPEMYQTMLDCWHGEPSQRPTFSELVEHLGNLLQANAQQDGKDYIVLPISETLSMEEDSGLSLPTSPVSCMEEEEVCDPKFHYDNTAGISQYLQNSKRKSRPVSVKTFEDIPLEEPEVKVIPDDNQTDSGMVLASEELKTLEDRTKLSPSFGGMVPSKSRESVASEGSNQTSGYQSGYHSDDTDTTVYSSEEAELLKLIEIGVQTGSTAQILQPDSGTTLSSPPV

Compound | IC50 [1] [µM] | IC50 [2] [nM] | IC50 [3] [nM] | IC50 [4] [nM] | other results
CCNC(=O)c1cc(Oc2ccc(NC(=O)c3cc4cccnc4n(-c4ccc(C(F)(F)F)cc4Cl)c3=O)cc2)ccn1 |  | 3290 |  | 4770 | 
CCCNC(=O)c1cc(Oc2ccc(NC(=O)c3cc4cccnc4n(-c4ccc(C(F)(F)F)cc4Cl)c3=O)cc2)ccn1 | 10.9 | 1250 | 3170 | 1960 | 
CCNC(=O)c1cc(Oc2ccc(NC(=O)c3cc4cccnc4n(-c4ccc(Br)cc4F)c3=O)cc2)ccn1 | 10.3 | 1820 | 1790 | 2070 | 
CCCNC(=O)c1cc(Oc2ccc(NC(=O)c3cc4cccnc4n(-c4ccc(Br)cc4F)c3=O)cc2)ccn1 |  | 1310 |  | 2160 | 
CCNC(=O)c1cc(Oc2ccc(NC(=O)c3cc4cccnc4n(-c4ccccc4)c3=O)cc2)ccn1 | 2.65 | 160 | 1120 | 220 | 
CNC(=O)c1cc(Oc2ccc(NC(=O)c3cc4cccnc4n(-c4ccccc4)c3=O)cc2)ccn1 | 1.82 | 200 | 320 | 250 | 
CNC(=O)c1cc(Oc2ccc(NC(=O)c3cc4cccnc4n(-c4ccccc4F)c3=O)cc2)ccn1 | 3.36 | 610 | 590 | 260 | 
CNC(=O)c1cc(Oc2ccc(NC(=O)c3cc4cccnc4n(-c4ccc(C(F)(F)F)cc4Cl)c3=O)cc2)ccn1 | 19.8 | 2090 | 2110 | 3190 | 
CNC(=O)c1cc(Oc2ccc(NC(=O)c3cc4cccnc4n(-c4ccc(Br)cc4F)c3=O)cc2)ccn1 |  | 1420 |  | 1950 | 
CNC(=O)c1cc(Oc2ccc(NC(=O)c3cc4cccnc4n(-c4ccc(Cl)cc4)c3=O)cc2)ccn1 |  | 370 |  | 390 | 
CCNC(=O)c1cc(Oc2ccc(NC(=O)c3cc4cccnc4n(-c4ccccc4F)c3=O)cc2)ccn1 | 3.25 | 490 | 1230 | 260 | 
CCNC(=O)c1cc(Oc2ccc(NC(=O)c3cc4cccnc4n(-c4ccc(F)c(Cl)c4)c3=O)cc2)ccn1 |  | 1920 |  | 2600 | 
CNC(=O)c1cc(Oc2ccc(NC(=O)c3cc4cccnc4n(-c4ccc(F)c(Cl)c4)c3=O)cc2)ccn1 |  | 1560 |  | 1810 | 

More lines, main results first:

IC50 [1] [µM] | IC50 [2] [nM] | IC50 [3] [nM] | IC50 [4] [nM] | Compound | other results
7.21 | 2010 | 1720 | 3350 | CCNC(=O)c1cc(Oc2ccc(NC(=O)c3cc4cccnc4n(-c4ccc(OC)cc4)c3=O)cc2)ccn1 | 
1.51 | 95 | 110 | 98 | CCCNC(=O)c1cc(Oc2ccc(NC(=O)c3cc4cccnc4n(-c4ccccc4)c3=O)cc2)ccn1 | 
 | 250 |  | 330 | CCNC(=O)c1cc(Oc2ccc(NC(=O)c3cc4cccnc4n(-c4ccc(Cl)cc4)c3=O)cc2)ccn1 | 
5.19 | 150 | 620 | 530 | CCCNC(=O)c1cc(Oc2ccc(NC(=O)c3cc4cccnc4n(-c4ccc(Br)cc4)c3=O)cc2)ccn1 | 
0.96 | 62 | 120 | 84 | CCCNC(=O)c1cc(Oc2ccc(NC(=O)c3cc4cccnc4n(-c4ccc(F)cc4)c3=O)cc2)ccn1 | IC50 [5]: 482 nM; IC50 [6]: 291 nM; IC50 [7]: 2.18 nM; IC50 [8]: 691 nM; IC50 [9]: 186 nM; IC50 [10]: 2.61 nM; IC50 [11]: > 100 µM; IC50 [12]: 529 nM; IC50 [13]: 23.6 nM
 | 120 |  | 390 | CCCNC(=O)c1cc(Oc2ccc(NC(=O)c3cc4cccnc4n(-c4ccc(Cl)cc4)c3=O)cc2)ccn1 | 
1.13 | 120 | 220 | 190 | CCNC(=O)c1cc(Oc2ccc(NC(=O)c3cc4cccnc4n(-c4ccc(F)cc4)c3=O)cc2)ccn1 | 
 | 3110 |  | 920 | CNC(=O)c1cc(Oc2ccc(NC(=O)c3cc4cccnc4n(-c4ccc(OC)cc4)c3=O)cc2)ccn1 | 
15 | 1050 | 3710 | 1180 | CNC(=O)c1cc(Oc2ccc(NC(=O)c3cc4cccnc4n(-c4ccc(Br)cc4)c3=O)cc2)ccn1 | 
2.91 | 110 | 210 | 160 | CNC(=O)c1cc(Oc2ccc(NC(=O)c3cc4cccnc4n(-c4ccc(F)cc4)c3=O)cc2)ccn1 | 
 | 910 |  | 1160 | CCNC(=O)c1cc(Oc2ccc(NC(=O)c3cc4cccnc4n(-c4ccc(Br)cc4)c3=O)cc2)ccn1 | 
2.32 | 150 | 390 | 200 | CCCNC(=O)c1cc(Oc2ccc(NC(=O)c3cc4cccnc4n(-c4ccccc4F)c3=O)cc2)ccn1 | 
3.59 | 590 | 1600 | 920 | CCCNC(=O)c1cc(Oc2ccc(NC(=O)c3cc4cccnc4n(-c4ccc(F)c(Cl)c4)c3=O)cc2)ccn1 | 
8.21 | 820 | 1730 | 1560 | CCCNC(=O)c1cc(Oc2ccc(NC(=O)c3cc4cccnc4n(-c4ccc(OC)cc4)c3=O)cc2)ccn1 | 
